{
  "source": "patent US4952572A",
  "about": "(priority 1989, dated 1990)",
  "key": {"[1]": {"system": "Staphylococcus aureus Smith", "assay": "In vivo activity against S. aureus Smith infection (ip) in mice", "settings": "im, single", "protocol": "Mice were challenged intraperitoneally with 100 times the lethal dose of the pathogen in a 5% suspension of hog gastric mucin (American Laboratory, Omaha, Neb.). BU-3420T was administered to mice intramuscularly just before the bacterial challenge."}, "[2]": {"assay": "Acute toxicity in mice, intramuscular", "assay_type": "in vivo", "settings": "5 mg/kg"}, "P388/VCR cells": {"system": "P388/VCR cells", "assay": "In vitro cytotoxicity, viable cell count", "settings": "in words", "protocol": "(§1) On the other hand, the cytotoxic activities against P388 and P388/VCR cells were determined by counting the number of viable cells."}, "Solubility": {"assay": "Solubility", "assay_type": "physicochemical"}, "[3]": {"system": "Gram-positive aerobic bacteria", "assay_type": "cell-based", "settings": "in words"}, "Gram-negative organisms": {"system": "Gram-negative organisms", "assay_type": "cell-based", "settings": "in words; relative to Gram-positive aerobic bacteria"}, "[4]": {"system": "murine and human tumor cell lines", "assay": "In vitro cytotoxicity, summary", "settings": "in words", "protocol": "as §1"}, "Moser cells": {"system": "Moser cells", "assay": "In vitro cytotoxicity, neutral red", "assay_type": "cell-based, human"}, "Cryptococcus neoformans": {"system": "Cryptococcus neoformans", "assay": "In vitro antifungal activity, summary", "assay_type": "cell-based", "settings": "relative to BU-3420T acetate"}},
  "data": [
    {"smiles": "COC1=C(C(=O)O)C(C)C23OC24c2cc(O)c5c(c2NC3C#C/C=C\\C#CC14)C(=O)c1c(O)ccc(O)c1C5=O", "note": "(stereo not shown) [BU-3420T]", "values": [
      {"measurement": "No. of survivor/tested", "setting": "[1]; 0.01 mg/kg", "value": "0/5"},
      {"measurement": "No. of survivor/tested", "setting": "[1]; 0.04 mg/kg", "value": "0/5"},
      {"measurement": "toxicity", "setting": "[2]", "value": "did not show any toxicity"},
      {"measurement": "cytotoxicity against VCR-sensitive vs resistant P388 cells", "setting": "P388/VCR cells", "value": "same cytotoxicities"},
      {"measurement": "solubility", "setting": "Solubility; in chloroform, ethyl acetate, methanol and ethanol", "value": "slightly soluble"},
      {"measurement": "solubility", "setting": "Solubility; in dimethyl sulfoxide, dimethylformamide and dioxane", "value": "soluble"},
      {"measurement": "solubility", "setting": "Solubility; in water and n-hexane", "value": "insoluble"},
      {"measurement": "antibacterial activity", "setting": "[3]", "value": "intensely potent activity"},
      {"measurement": "susceptibility of Gram-negative organisms", "setting": "Gram-negative organisms", "value": "a little less susceptible"},
      {"measurement": "cytotoxicity", "setting": "[4]", "value": "potent cytotoxicity"}
    ]},
    {"smiles": "CO[C@@]12[C@H](COC(N)=O)C3=C(C(=O)C(C)=C(N)C3=O)N1C[C@@H]1N[C@@H]12", "note": "[Mitomycin C]", "values": [
      {"measurement": "resistance of Moser and HCT-116 relative to B16-F10", "setting": "Moser cells; Moser and HCT-116 cells vs B16-F10", "value": "slightly more resistant"}
    ]},
    {"smiles": "COC1=C(C(=O)O)C(C)C23OC24c2cc(OC(C)=O)c5c(c2NC3C#C/C=C\\C#CC14)C(=O)c1c(OC(C)=O)ccc(OC(C)=O)c1C5=O", "note": "(stereo not shown) [BU-3420T acetate]", "values": [
      {"measurement": "IC50", "setting": "Moser cells; Homo sapiens, Moser, 72 hours", "value": 0.003, "unit": "ng/mL"},
      {"measurement": "solubility", "setting": "Solubility; in organic solvents such as chloroform, methanol and ethanol, relative to BU-3420T", "value": "much improved solubility"},
      {"measurement": "antibacterial activity", "setting": "[3]", "value": "intensely potent activity"},
      {"measurement": "susceptibility of Gram-negative organisms", "setting": "Gram-negative organisms", "value": "a little less susceptible"}
    ]},
    {"smiles": "C[C@@H]1[C@H](O)[C@@H](C)/C=C/C=C/C=C/C=C/C=C/C=C/C=C/[C@H](O[C@@H]2O[C@H](C)[C@@H](O)[C@H](N)[C@@H]2O)C[C@@H]2O[C@](O)(C[C@@H](O)C[C@@H](O)[C@H](O)CC[C@@H](O)C[C@@H](O)CC(=O)O[C@H]1C)C[C@H](O)[C@H]2C(=O)O", "note": "[Amphotericin B]", "values": [
      {"measurement": "susceptibility of Cryptococcus neoformans", "setting": "Cryptococcus neoformans", "value": "more susceptible to amphotericin B"}
    ]}
  ]
}
